Measured values reported in paper PMC4718506 (Bioscience Reports, 2016).
Blank lines part the entries; values can stand above or below the substance they belong to. Where no end group is shown, it is not given here.

Key:
GLP-1R [1] = details: truncation of first two residues of GLP-1; cited from earlier work
GLP-1R [2] = details: truncation of first two residues of GLP-1; cited from earlier work; remark: listed apart in the source
[3] = test system: glucagon receptor mutant Asp-385^7.41–Glu; details: Asp-385^7.41–Glu glucagon receptor; cited from earlier work
Description: […]. These Arg-310^5. ...

[4] = test system: glucagon receptor with upper half replaced by GLP-1R; details: upper half of glucagon receptor replaced with GLP-1R; cited from earlier work
glucagon receptor = details: cited from earlier work
Description: (§1) This putative salt bridge may play an important structural role, the disruption of which could result in a disturbance of the agonist-binding site formed by other residues in ECL2.

[5] = test system: GLP-1R mutant Arg-190^2.60–Ala; details: cited from earlier work
[6] = test system: GLP-1R mutant Arg-190^2.60–Ala; details: cited from earlier work; remark: listed apart in the source
[7] = test system: glucagon receptor with region (ECL2 and neighbouring helical regions) replaced by GLP-1R equivalent; details: ECL2 and neighbouring helical regions replaced with GLP-1R equivalent; cited from earlier work
Description: as §1

[8] = test system: hGLP-1R double-Ala mutants (four sites, TM4/ECL2/TM5); assay: Radioligand binding, double-Ala scan; set-up: species or system human; details: 75 pM 125I-GLP-1, >10,000-fold unlabelled GLP-1 competitor; four sites of double-Ala scan; data in Table S2
Description: Flp-In HEK293 cells, cultured to confluence on five 160-cm^2 Petri dishes (pre-coated with poly-D-lysine), were washed with PBS, followed by the addition of 15 ml of ice-cold sterile double distilled water to induce cell lysis. Following 5 min incubation on ice, the ruptured cells were thoroughly washed with ice-cold PBS before being scraped from the plates and pelleted by centrifugation in a bench-top centrifuge (13,000 g for 30 min). The crude membrane pellet was resuspended in 1 ml membrane-binding solution (MBS; 50 mM HEPES pH 7.4, 2.5 mM CaCl2, 5 mM MgCl2, 0.2% BSA) and forced through a 23G needle. Aliquots (0.1 ml) were snap-frozen in liquid nitrogen and stored at −70°C. When required for assay, membranes were slowly thawed on ice before diluting to a concentration that gave total radioligand binding of <10% total counts added. […] Assays were carried out for 1 h in MultiScreen 96-well Filtration Plates (Glass fibre filters, 0.65 μm pore size, Millipore) pre-soaked in 1% non-fat milk/PBS. After the incubation, membrane-associated radioligand was harvested by transferring the assay mixture to the filtration plate housed in a vacuum manifold. […]
Binding and cAMP assays were carried out with triplicate values at each ligand concentration and with each assay being repeated at least three times. The resultant data were analysed using Prism 6 (GraphPad Software Inc.).

Substance: GLP-1(9–36)amide: Truncation of the first two residues of GLP-1 (EGTFTSDVSSYLEGQAAKEFIAWLVKGR-NH2; UniProt P01275 100-127, looked up, fragment)
affinity (GLP-1R [1]): reduced affinity
efficacy (GLP-1R [2]): substantial loss of efficacy

Substance: glucagon: native glucagon
effect on affinity and potency [3]: reducing the affinity and potency

Substance: Glu-3–glucagon: native glucagon has Gln-3*
affinity and potency [4]: could be rescued
affinity and potency (glucagon receptor): reduced affinity and potency

Substance: Ala-2–glucagon: Ser-2* of glucagon replaced (equivalent of Ala-8* in GLP-1)
effect on affinity and potency [3]: improve the affinity and potency

Substance: oxyntomodulin: has Gln at the 3rd position rather than Glu
effect on efficacy [5]: did not reduce oxyntomodulin affinity or efficacy
effect on affinity [6]: did not reduce oxyntomodulin affinity or efficacy

Substance: Ser-12–glucagon: Lys-12* in native glucagon, equivalent of Ser-18* in GLP-1
affinity and potency (glucagon receptor): reduced affinity and potency
affinity and potency [7]: could be rescued

specific binding [8]: reduced specific binding
Substance: ^125I-GLP-1: radioligand, kind gift of Novo Nordisk
